Structures are written as SMILES.

Regarding `COc1ccc(C(=O)Nc2ccccc2)cc1NC(=S)Nc1c(F)c(F)cc(F)c1F`, the melting point lay within 170 to 174 °C.
`COc1ccc(Cn2cnc3c(-c4ccco4)ncnc32)cc1`: the melting point lay in the range of 175 to 176 °C.
Take `NC(=O)C1(c2ccccc2)CCN(Cc2ccccc2)CC1`: the melting point was in the range of 117 to 118 °C.
In the case of `N[C@@]1(C(=O)O)C[C@H](NC(=O)Nc2cccc3ccccc23)[C@H]2[C@H](C(=O)O)[C@H]21` (relative stereo), the melting point was more than 275 °C.
Consider `O=C(NN1CC=CCC1)Oc1ccccc1`, for which the melting point lay within 124 to 126 °C.
`CCCOc1ccc(N(C)S(=O)(=O)c2ccc(C)cc2)c([N+](=O)[O-])c1` displayed a melting point of 93 to 94 °C.
As for `CC(C)n1c(=O)cc(C(F)(F)F)[nH]c1=O`, the melting point fell in the range of 127 to 129 °C.
`CC(C)(C)OC(=O)N1C2CCC1C(=O)C2` (stereo not drawn) showed a melting point of 60 to 62 °C.
`CCc1cc(-c2nc(C)c(-c3ccnc(Nc4ccc(N5CCOCC5)cc4)n3)s2)ccn1` yielded a melting point of 214 to 215 °C.
Take `Nc1nc(N)nc(N2CCSCC2)n1`: the melting point lay in the range of 237 to 239 °C.
The molecule `CC(CC#CC(C)(C)O)C1=CCC2C3=CC=C4CC(O)CCC4(C)C3CCC12C` (stereo not drawn) gave a melting point of 185 to 192 °C.
`Cc1cccc(NC(=O)NC2(C)N=C(N3CCN(C)CC3)c3cccc(C)c3N(C)C2=O)c1` (stereo not drawn): the melting point fell in the range of 136 to 140 °C.
The same measure for `Clc1ccccc1-c1cnccn1`: 38 to 39 °C.
Consider `O=C1Cc2cc3c(cc2C(c2ccccc2)=NN1c1ccc([N+](=O)[O-])cc1)OCO3`, for which the melting point is more than 200 °C.
The molecule `COc1cc(N(C)C)c(Cl)cc1C(=O)NC1CCN(Cc2ccccc2)C1` (stereo not drawn) had a melting point of 85 to 86 °C.
To `O=C(O)CNC1C2CC3CC(C2)CC1C3` (stereo not drawn) belongs 255 °C; to `CCOC(=O)NNc1ccc(N(C)CCO)nn1`, 131 to 133 °C.
Turning to `CC(C)(C)OC(=O)N[C@@H](CCC(N)=O)C(=O)N1CCN(Cc2ccccc2)CC1`, the melting point was 158 to 159 °C.
In the case of `O=C1CCCCCCCCCCC(=O)OCCC1`, the melting point worked out at 33 °C.
As to `Oc1ccc(-c2cc3cc(O)cc(CBr)c3o2)cc1`, the melting point lay within 337 to 339 °C.
In turn, `COc1ccc(COC2CC(n3cc(C(F)(F)F)c(=O)n(C(=O)c4ccccc4)c3=O)OC2CO)cc1` (stereo not drawn) displayed a melting point of 152 to 153 °C.
For `CCOCc1cc(Cn2cc(C3c4ccccc4C=Cc4ccccc43)c(=S)[nH]c2=O)cc(C(=O)O)c1`, the melting point is more than 240 °C.
Consider `CC(=O)OCC(=O)C1(OC(=O)c2ccccc2)CCC2C3CC(C)C4=CC(=O)CCC4(C)C3C(O)CC21C` (stereo not drawn), for which the melting point came to 210 °C.
As for `CCCn1nc2c(N)nc3ccccc3c2c1CCCc1cc(-c2cccnc2)on1`, the melting point lay in the range of 196 to 198 °C.
Regarding `COc1ccc(CCc2oc3cccc(OC(C)=O)c3c2C)cc1`, the melting point was 66 to 69 °C.
In the case of `CC(=O)NCCCc1c(N)ccc2c1C(=O)c1ccccc1C2=O`, the melting point came out at 202 °C.
With `NC(=O)N(O)Cc1ccc(-c2ccccc2)s1`, the melting point is 174 °C.
Molecule `COc1ccc(S(=O)(=O)N2C(=O)C(c3ccccc3OC)(N3CCc4ccccc4[C@H]3C(=O)N(C)C)c3cc(Cl)ccc32)c(OC)c1` (stereo partly drawn) came in with a melting point of 263 °C.
Consider `CCOC(=O)c1cn(-c2cc(NC(=O)OC(C)(C)C)c(F)cc2F)c2c(Cl)c(N)c(F)cc2c1=O`, for which the melting point fell in the range of 143 to 150 °C.
In turn, `COc1cccn2c(=O)c3c(nc12)C(=Cc1ccccc1Cl)CC3` displayed a melting point of 247 to 248 °C.
The molecule `COC(=O)C1(NC(=O)Cc2cc(C(C)=O)ccc2C)CCN(OC)CC1` had a melting point of 138 to 139 °C.
`CCCCC(=O)c1ccc(-c2ccccc2)cc1`: the melting point was in the range of 79 to 79.5 °C.
To `Cc1c(C)c2c(c(C)c1OCc1ccccc1)CCC(C)(CC=O)O2` (stereo not drawn) belongs 70 to 75 °C; to `N#Cc1ccc2c(c1)c1c(n2Cc2cccc(F)n2)CCC(NC(=O)C2CC2)C1` (stereo not drawn), 243 to 245 °C.
To `N#Cc1c(F)cc(OCCOc2ccc3ccccc3c2)cc1F` belongs 148 to 149 °C.
Consider `COc1ccc(CNC(=O)c2ccc([N+](=O)[O-])cc2N)cc1`, for which the melting point was 129 to 131 °C.
With `CCCn1c(=O)c2c(nc(/C=C/c3ccc(OC(C)=O)c(OC(C)=O)c3)n2C)n(CCC)c1=O`, the melting point was 229 to 230 °C.
In turn, `Cc1cc(C)c(Nc2nc(C)ncc2S(=O)(=O)c2ccc(N3CCCC3)cc2)c(C)c1` came in with a melting point of 196 to 198 °C.
As for `Nc1nc2c(s1)CC(CN1CCN(c3ccccn3)CC1)CC2` (stereo not drawn), the melting point was in the range of 177 to 179 °C.
Molecule `N#CC(CC(=O)c1ccc(Cl)cc1)C(N)=O` (stereo not drawn) yielded a melting point of 160 to 161 °C.
As for `CCOC(=O)C(=CNc1ncnc2ccc(NS(C)(=O)=O)cc12)C(=O)OCC`, the melting point fell in the range of 200 to 202 °C.
`COc1ccc(Cl)cc1C(=O)N(C)OC` had a melting point of 80 to 83 °C.
In turn, `CC(=O)c1cc(S(=O)(=O)c2cccc(F)c2)ccc1O` gave a melting point of 164 to 165 °C.
For `Cc1cc(Cl)cc(Cl)c1CNc1c(N[C@H](C)C(C)(C)C)c(=O)c1=O`, the melting point is more than 300 °C.
Molecule `O=C(CCCN1CCC(C(O)(c2ccccc2)c2ccccc2)CC1)c1ccc(N2CCCCC2)cc1` had a melting point of 138 to 139 °C.
Consider `CC(C)CC(NC(=O)OC(C)(C)C)C(=O)NCCC(=O)O` (stereo not drawn), for which the melting point lay in the range of 91 to 92 °C.
For `CC(C)(C)OC(=O)NC12CCC1CN(c1c(F)cc3c(=O)c(C(=O)O)cn(C4CC4)c3c1F)C2` (stereo not drawn), the melting point was 211 to 215 °C.
The same measure for `CCOC(=O)c1ccc(CNC(=O)CI)cc1O`: 105 to 108 °C.
`Cc1cc(-c2cc(Br)n(C)n2)c(C)[nH]1` yielded a melting point of 66 to 69 °C.
To `Cc1cccc(OCCO)c1` belongs 76 to 78 °C; to `O=C(O)Cc1cccc(Oc2ccccc2O)c1O`, 91 to 93 °C; to `CC(C)C(C(=O)O)N(C)S(=O)(=O)c1ccc(-c2ccc(NC(=O)c3cc4ccccc4o3)cc2)cc1` (stereo not drawn), 237 to 239 °C.
With `CN1CCC(c2nn(C(=O)c3ccc(Cl)c(Cl)c3)c3ccccc23)CC1`, the melting point lay within 187 to 189 °C.
To `COC(=O)c1ccc(-c2nnc(C)o2)s1` belongs 142 to 145 °C; to `Cc1ccccc1CCCc1c(C(C)C)nc(C(C)C)c(CO)c1-c1ccc(F)cc1`, 65 to 70 °C.
Molecule `O=C1CCC(N2Cc3cc(CNC(=O)c4ccc(Cl)c(Cl)c4)ccc3C2=O)C(=O)N1` (stereo not drawn) yielded a melting point of 260 to 262 °C.
In turn, `CCOP(=O)(CNCc1ccnc(-c2cc(OC)c(O)c(OC)c2)c1)OCC` came in with a melting point of 124 to 126 °C.
As to `CCc1cn2c(N)c(Cl)cc(C(=O)NCC3CCN(CC(C)(C)OC)CC3)c2n1`, the melting point stood at 211 °C.
To `Cc1cccc([N+](=O)[O-])c1Br` belongs 36 to 41 °C.
The same measure for `C[C@@H]1Cc2cc3c(cc2C(c2ccc(N)cc2)=NN1c1ccccc1)OCO3`: 118 to 119 °C.
Turning to `CCS(=O)(=O)c1ccc(C(CC2CCCC2)C(=O)NC(=O)NC)cc1` (stereo not drawn), the melting point fell in the range of 200 to 201 °C.
As to `CC(C)(C)OC(=O)C(Nc1ccccc1)C(=O)N1CCCC1` (racemic), the melting point was determined as 80 °C.
`CC(C)[Si](Oc1c(F)cc([C@@H](O)[C@@H](C)N2CCC(O)(c3ccc(Cl)cc3)CC2)cc1F)(C(C)C)C(C)C` (relative stereo): the melting point is 192 °C.
Take `CCOC(=O)c1c(N2CCC(N(C)C)C2)c2cc(C)ccc2n(Cc2ccccc2)c1=O` (stereo not drawn): the melting point was more than 40 °C.
`CC1(C)CCC(C)(C)c2cc(C(=O)Nc3ccc(I)cc3)ccc21` registered a melting point of 224 °C.
The same measure for `Cc1c(CC(C)(C)C(=O)O)n(Cc2ccc(Cl)cc2)c2ccc(OCc3ccc(-c4ccccc4)cn3)cc12`: 177 to 179 °C.
For `CCCCCCCCCCCCNC(=O)COc1ccc(O)cc1NCC(=O)O`, the melting point was in the range of 122 to 125 °C.
The same measure for `O=C(Oc1ccc(C(=O)OCc2ccccc2)cc1)C(=O)Oc1ccc(C(=O)OCc2ccccc2)cc1`: 106 to 108 °C; for `N#Cc1ncn2c(C(F)(F)F)cc(-c3ccc(C(F)(F)F)cc3)nc12`: 236 °C; for `Cc1c2n(c3ccccc13)CCC2O` (stereo not drawn): 118 to 120 °C.
Take `CON=C(C(=S)OC)c1ccccc1COc1ccccc1Cl`: the melting point is 58 to 60 °C.
Regarding `CC(C)Cn1c(=O)n(C)c(=O)c2c(SCCCC(=O)O)c(Cc3cccc4ccccc34)sc21`, the melting point was in the range of 172 to 173 °C.
The same measure for `NC(Cc1c[nH]c2c(Br)cccc12)C(=O)O` (stereo not drawn): more than 260 °C; for `CCCCOn1nnc2ccc(C(O)c3ccccc3)cc21` (stereo not drawn): 89.2 °C.
Take `O=C(NCCCN1CCN(c2ncccn2)CC1)NC12CC3CC(CC(C3)C1)C2`: the melting point fell in the range of 172 to 173 °C.
The molecule `CS(=O)(=O)Nc1cnccc1CCCOc1cccnc1Oc1cccc(Cl)c1` had a melting point of 131 to 133 °C.
`COc1cc2nc(Cn3cnc4c(N)ncnc43)n(-c3ccccc3Cl)c(=O)c2cc1OC` returned a melting point of 282 to 283 °C.
As to `Oc1c(Sc2ccccc2)sc2ccccc12`, the melting point is 71 to 73 °C.
Consider `O=C1OCCN1c1ccc(NCC(O)CO)c([N+](=O)[O-])c1` (stereo not drawn), for which the melting point was determined as 150 °C.
`CCCCCC(CCCCCO)NCc1cc2cc3c(cc2c2cc(OC)ccc12)OCO3` (stereo not drawn): the melting point was 122 to 124 °C.
Molecule `COc1cc(C2C3=C(COC3=O)Nc3ccc4cn[nH]c4c32)ccc1O` (stereo not drawn) gave a melting point of 238 to 240 °C.
For the molecule `CCCCCCCCCCCCCCCCCCCCCCC(COC(C)=O)(COC(C)=O)NC(C)=O`, the melting point was in the range of 94 to 95 °C.
In turn, `CCCCCCCC/C=C\CCCCCCCC(O)CCCNC(=O)CCNC(C)=O` (stereo not drawn) showed a melting point of 103 to 108 °C.
For the molecule `COc1ccc2c(ccn3c(=O)c(C(=O)O)cnc23)c1`, the melting point lay within 302 to 304 °C.
As for `CC(=O)NCCCSc1c(Cc2cccc3ccccc23)sc2c1c(=O)n(C)c(=O)n2CC(C)C`, the melting point was 114 to 117 °C.
`CCOC(=O)C1CC2CCC(=O)N2C1=O` (stereo not drawn) gave a melting point of 65 to 67 °C.
On to `Cc1c(F)cc(O)c2c(=O)c(C(=O)O)cn([C@@H]3C[C@@H]3F)c12`, for which the melting point fell in the range of 209 to 213 °C.
Regarding `Fc1ccc(-c2cc(Cl)c3cc(F)ccc3n2)cc1`, the melting point lay within 130 to 133 °C.

These data come from a melting point compilation (Tetko et al.; mined from patent text by program, amines drawn as free bases though some values may be those of a salt).
